# Measurements: patent US20030040538A1, “Novel substituted tricyclic compounds” (priority 1999, published 2003)
# Where a name gives a salt, the structure may show the parent alone.
# Biological target: T1, human β3 (Homo sapiens, UniProt P13945)
# T1 construct: the full length human β3 gene was obtained from a human genomic library; expressed in transfected cells; host or cells: CHO (Chinese hamster ovary) cells, pcDNA3 vector
# Assay: Human β3-agonist activities (cAMP in CHO cells transfected with human β3 gene)
# Type: cell-based
# Conditions: CHO cells expressing human β3; for EC50: cAMP quantitated with EIA kit after 30 minutes, read-out: human β3-agonist activity (ED50); for Emax: read-out: intrinsic activity as compared with Isoproterenol
# Description: Human β3-Agonist Activities
# Human β3-agonist activities were determined using CHO (Chinese hamster ovary) cells transfected with pcDNA3 (mfd. by Invitrogen) to which human β3 gene had been inserted. Human β3 fragment was first obtained from human adipose tissue cDNA (mfd. by Clonetech) by PCR using the primer of β3 (Krief, et al., J. Clin. Invest., 91, p. 344 (1993)). The human β3 fragment obtained was then used as a probe and then the full length human β3 gene was obtained from a human genomic library (mfd. by Clonetech).
# The above cells were cultured in a Ham F-12 medium supplemented with 10% fetal bovine serum (mfd. by Dainippon Pharmaceutical), 400 μg/mL geneticin (Gibco BRL), 100 U/mL penicillin and 100 μg/mL streptomycin. After placing these cells (5×10^5) into a 6-well plate and culturing them for 24 hours, they were allowed to stand on a serum-free Ham F-12 medium for 2 hours. The compound was first dissolved in DMSO, repeatedly diluted by ten times with Ham F-12 supplemented with 1 mM isobutylmethylxanthine and 1 mM ascorbic acid to a final concentration of from 10^−5 to 10^−12 M, and then added to the cells.
# After the cells were cultured for 30 minutes, the medium was removed followed by addition of 0.5 mL of an aqueous 1 N sodium hydroxide solution. The medium was allowed to stand for 20 minutes and then 0.5 mL of an aqueous 1 N acetic acid solution was added to the medium. The medium was stirred and centrifuged followed by quantitating cAMP with cAMP EIA kit (mfd. by Cayman). Isoproterenol was purchased from RBI (Research Biochemicals International).
# [1] = cAMP, relative to Isoproterenol
# T1 sequence (P13945 whole entry): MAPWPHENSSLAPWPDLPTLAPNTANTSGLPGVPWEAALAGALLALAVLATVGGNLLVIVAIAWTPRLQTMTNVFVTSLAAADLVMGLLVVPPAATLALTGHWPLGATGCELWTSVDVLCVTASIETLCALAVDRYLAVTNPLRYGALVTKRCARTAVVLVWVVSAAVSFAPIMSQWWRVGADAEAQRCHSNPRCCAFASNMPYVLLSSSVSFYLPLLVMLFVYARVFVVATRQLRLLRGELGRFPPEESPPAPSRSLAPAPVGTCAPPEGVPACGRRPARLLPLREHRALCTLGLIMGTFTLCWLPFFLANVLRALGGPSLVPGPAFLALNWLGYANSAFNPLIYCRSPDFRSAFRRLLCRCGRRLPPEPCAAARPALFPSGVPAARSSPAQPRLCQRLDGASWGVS
structure (smiles),measurement,setting,value
"CC(=O)Nc1ccc2c(c1)[nH]c1cc(OCCNC[C@H](O)c3cccc(NS(C)(=O)=O)c3)ccc12 [Example 8, (R)-N-[3-[2-[2-(7-acetamido-9H-carbazol-2-yloxy)-ethylamino]-1-hydroxyethyl]phenyl]methanesulfonamide Hydrochloride]",EC50,,0.35 nM
same,Emax,[1],47%
"CS(=O)(=O)Nc1cccc([C@@H](O)CNCCOc2ccc3c(c2)[nH]c2cc(N)ccc23)c1 [Example 9, (R)-N-[3-[2-[2-(7-amino-9H-carbazol-2-yloxy)ethylamino]-1-hydroxyethyl]phenyl]methanesulfonamide Dihydrochloride]",EC50,,1 nM
same,Emax,[1],102%
"CS(=O)(=O)Nc1cccc([C@@H](O)CNCCOc2ccc3c(c2)[nH]c2cc(O)ccc23)c1 [Example 2, (R)-N-[3-[2-[2-(7-hydroxy-9H-carbazol-2-yloxy)ethylamino]-1-hydroxyethyl]phenyl]methanesulfonamide Hydrochloride]",EC50,,0.8 nM
same,Emax,[1],82%
"CS(=O)(=O)Nc1cccc([C@@H](O)CNCCOc2ccc3c(c2)[nH]c2cc(OCC(=O)O)ccc23)c1 [Example 45, (R)-N-[3-[2-[2-(7-hydroxycarbonylmethoxy-9H-carbazol-2-yloxy)ethylamino]-1-hydroxyethyl]phenyl]methanesulfonamide]",EC50,,2.6 nM
same,Emax,[1],114%
"CS(=O)(=O)Nc1cccc([C@@H](O)CNCCOc2ccc3c(c2)[nH]c2cc(NS(C)(=O)=O)ccc23)c1 [Example 35, (R)-N-[3-[1-hydroxy-2-[2-(7-N′-methylsulfonylamino-9H-carbazol-2-yloxy)ethylamino]ethyl]phenyl]methanesulfonamide Hydrochloride]",EC50,,0.16 nM
same,Emax,[1],96%
"CS(=O)(=O)Nc1cc([C@@H](O)CNCCOc2ccc3c(c2)[nH]c2cc(O)ccc23)ccc1Cl [Example 3, (R)-N-[2-chloro-5-[2-[2-(7-hydroxy-9H-carbazol-2-yloxy)ethylamino]-1-hydroxyethyl]phenyl]methanesulfonamide Hydrochloride]",EC50,,1.5 nM
same,Emax,[1],75%
CC(C)(C)C(=O)Oc1ccc2c(c1)[nH]c1cc(OCCNCC(O)c3cccc(NS(C)(=O)=O)c3)ccc12 (stereo not drawn) [Example 10],EC50,,2.4 nM
same,Emax,[1],112%
"CCN(c1ccc2c(c1)[nH]c1cc(OCCNC[C@H](O)c3cccc(NS(C)(=O)=O)c3)ccc12)S(C)(=O)=O.Cl [Example 33, (R)-N-[3-[2-[2-[7-(N′-ethyl-N′-methylsulfonylamino)-9H-carbazol-2-yloxy]ethylamino]-1-hydroxyethyl]phenyl]methanesulfonamide Hydrochloride]",EC50,,0.22 nM
same,intrinsic activity as compared with Isoproterenol,[1],94%
"COCCOc1ccc2c(c1)[nH]c1cc(OCCNC[C@H](O)c3cccc(NS(C)(=O)=O)c3)ccc12 [Example 43, (R)-N-[3-[1-hydroxy-2-[2-[7-(2-methoxyethoxy)-9H-carbazol-2-yloxy]ethylamino]ethyl]phenyl]methanesulfonamide Hydrochloride]",EC50,,0.69 nM
same,Emax,[1],114%
